Experimental data as given in patent US12077503B2, “Substituted cyclic amides and their use as herbicides” (FMC CORPORATION, priority 2015, dated 2024).

Assays:
Experiment in all cases: Test C preemergence
Assay type in all cases: in vivo
[1] = system: velvetleaf (Abutilon theophrasti); conditions: for Plant response rating, Velvetleaf: scale 0 to 100, 0 no effect, 100 complete control
In short: (§1)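 Herbicidal effect, applied preemergence to sown seeds or postemergence to 1- to 4-leaf plants, was scored visually 13 to 15 d after application, 0 to 100 versus controls.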

corn (Zea mays) = conditions: for Plant response rating, Corn: scale 0 to 100, 0 no effect, 100 complete control
In short: as §1

[2] = system: ragweed (common ragweed, Ambrosia elatior); conditions: for Plant response rating, Ragweed: scale 0 to 100, 0 no effect, 100 complete control
In short: as §1

[3] = system: morningglory (Ipomoea coccinea); conditions: for Plant response rating, Morningglory: scale 0 to 100, 0 no effect, 100 complete control
In short: as §1

[4] = system: crabgrass, large (large crabgrass, Digitaria sanguinalis); conditions: for Plant response rating, Crabgrass, Large: scale 0 to 100, 0 no effect, 100 complete control
In short: as §1

[5] = system: Galium (catchweed bedstraw, Galium aparine); conditions: for Plant response rating, Galium: scale 0 to 100, 0 no effect, 100 complete control
In short: as §1

[6] = system: waterhemp (common waterhemp, Amaranthus rudis); conditions: for Plant response rating, Waterhemp: scale 0 to 100, 0 no effect, 100 complete control
In short: as §1

[7] = system: pigweed (Amaranthus retroflexus); conditions: for Plant response rating, Pigweed: scale 0 to 100, 0 no effect, 100 complete control
In short: as §1

[8] = system: oilseed rape (Brassica napus); conditions: for Plant response rating, Oilseed Rape: scale 0 to 100, 0 no effect, 100 complete control
In short: as §1

[9] = system: nutsedge, yellow (yellow nutsedge, Cyperus esculentus); conditions: for Plant response rating, Nutsedge, Yellow: scale 0 to 100, 0 no effect, 100 complete control
In short: as §1

[10] = system: wheat (winter wheat, Triticum aestivum); conditions: for Plant response rating, Wheat: scale 0 to 100, 0 no effect, 100 complete control
In short: as §1

[11] = system: barnyardgrass (Echinochloa crus-galli); conditions: for Plant response rating, Barnyardgrass: scale 0 to 100, 0 no effect, 100 complete control
In short: as §1

soybean (Glycine max) = conditions: for Plant response rating, Soybean: scale 0 to 100, 0 no effect, 100 complete control
In short: as §1

[12] = system: blackgrass (Alopecurus myosuroides); conditions: for Plant response rating, Blackgrass: scale 0 to 100, 0 no effect, 100 complete control
In short: as §1

[13] = system: foxtail, giant (giant foxtail, Setaria faberii); conditions: for Plant response rating, Foxtail, Giant: scale 0 to 100, 0 no effect, 100 complete control
In short: as §1

[14] = system: johnsongrass (Sorghum halepense); conditions: for Plant response rating, Johnsongrass: scale 0 to 100, 0 no effect, 100 complete control
In short: as §1

[15] = system: ryegrass, Italian (Italian ryegrass, Lolium multiflorum); conditions: for Plant response rating, Ryegrass, Italian: scale 0 to 100, 0 no effect, 100 complete control
In short: as §1

[16] = 31 g ai/ha, 0 is no effect, 100 is complete control

## O=C1NCC(c2cc(F)cc(Cl)c2)C1C(=O)Nc1cccc(F)c1F (centres unmarked) [Compound 492]
[1]; [16]
  Plant response rating (scale of 0 to 100), Velvetleaf: 0
[1]; 62 g ai/ha
  Plant response rating, Velvetleaf: 0
[1]; 125 g ai/ha
  Plant response rating, Velvetleaf: 5
[1]; 250 g ai/ha
  Plant response rating, Velvetleaf: 5
Corn (Zea mays); [16]
  Plant response rating (scale of 0 to 100), Corn: 0
Corn (Zea mays); 62 g ai/ha
  Plant response rating, Corn: 10
Corn (Zea mays); 125 g ai/ha
  Plant response rating, Corn: 55
Corn (Zea mays); 250 g ai/ha
  Plant response rating, Corn: 85
[2]; [16]
  Plant response rating (scale of 0 to 100), Ragweed: 0
[2]; 62 g ai/ha
  Plant response rating, Ragweed: 10
[2]; 125 g ai/ha
  Plant response rating, Ragweed: 35
[2]; 250 g ai/ha
  Plant response rating, Ragweed: 45
[3]; [16]
  Plant response rating (scale of 0 to 100), Morningglory: 0
[3]; 62 g ai/ha
  Plant response rating, Morningglory: 10
[3]; 125 g ai/ha
  Plant response rating, Morningglory: 20
[3]; 250 g ai/ha
  Plant response rating, Morningglory: 45
[4]; [16]
  Plant response rating (scale of 0 to 100), Crabgrass, Large: 90
[4]; 62 g ai/ha
  Plant response rating, Crabgrass, Large: 95
[4]; 125 g ai/ha
  Plant response rating, Crabgrass, Large: 95
[4]; 250 g ai/ha
  Plant response rating, Crabgrass, Large: 95
[5]; [16]
  Plant response rating (scale of 0 to 100), Galium: 85
[5]; 62 g ai/ha
  Plant response rating, Galium: 0
[5]; 125 g ai/ha
  Plant response rating, Galium: 0
[5]; 250 g ai/ha
  Plant response rating, Galium: 85
[6]; [16]
  Plant response rating (scale of 0 to 100), Waterhemp: 0
[6]; 62 g ai/ha
  Plant response rating, Waterhemp: 10
[6]; 125 g ai/ha
  Plant response rating, Waterhemp: 40
[6]; 250 g ai/ha
  Plant response rating, Waterhemp: 65
[7]; [16]
  Plant response rating (scale of 0 to 100), Pigweed: 0
[7]; 62 g ai/ha
  Plant response rating, Pigweed: 25
[7]; 125 g ai/ha
  Plant response rating, Pigweed: 75
[7]; 250 g ai/ha
  Plant response rating, Pigweed: 80
[8]; [16]
  Plant response rating (scale of 0 to 100), Oilseed Rape: 0
[8]; 62 g ai/ha
  Plant response rating, Oilseed Rape: 50
[8]; 125 g ai/ha
  Plant response rating, Oilseed Rape: 85
[8]; 250 g ai/ha
  Plant response rating, Oilseed Rape: 85
[9]; [16]
  Plant response rating (scale of 0 to 100), Nutsedge, Yellow: 0
[9]; 62 g ai/ha
  Plant response rating, Nutsedge, Yellow: 0
[9]; 125 g ai/ha
  Plant response rating, Nutsedge, Yellow: 0
[9]; 250 g ai/ha
  Plant response rating, Nutsedge, Yellow: 0
[10]; [16]
  Plant response rating (scale of 0 to 100), Wheat: 0
[10]; 62 g ai/ha
  Plant response rating, Wheat: 0
[10]; 125 g ai/ha
  Plant response rating, Wheat: 5
[10]; 250 g ai/ha
  Plant response rating, Wheat: 35
[11]; [16]
  Plant response rating (scale of 0 to 100), Barnyardgrass: 80
[11]; 62 g ai/ha
  Plant response rating, Barnyardgrass: 90
[11]; 125 g ai/ha
  Plant response rating, Barnyardgrass: 90
[11]; 250 g ai/ha
  Plant response rating, Barnyardgrass: 95
Soybean (Glycine max); [16]
  Plant response rating (scale of 0 to 100), Soybean: 50
Soybean (Glycine max); 62 g ai/ha
  Plant response rating, Soybean: 0
Soybean (Glycine max); 125 g ai/ha
  Plant response rating, Soybean: 40
Soybean (Glycine max); 250 g ai/ha
  Plant response rating, Soybean: 0
[12]; [16]
  Plant response rating (scale of 0 to 100), Blackgrass: 0
[12]; 62 g ai/ha
  Plant response rating, Blackgrass: 5
[12]; 125 g ai/ha
  Plant response rating, Blackgrass: 10
[12]; 250 g ai/ha
  Plant response rating, Blackgrass: 10
[13]; [16]
  Plant response rating (scale of 0 to 100), Foxtail, Giant: 90
[13]; 62 g ai/ha
  Plant response rating, Foxtail, Giant: 90
[13]; 125 g ai/ha
  Plant response rating, Foxtail, Giant: 90
[13]; 250 g ai/ha
  Plant response rating, Foxtail, Giant: 95
[14]; [16]
  Plant response rating (scale of 0 to 100), Johnsongrass: 20
[14]; 62 g ai/ha
  Plant response rating, Johnsongrass: 55
[14]; 125 g ai/ha
  Plant response rating, Johnsongrass: 80
[14]; 250 g ai/ha
  Plant response rating, Johnsongrass: 90
[15]; [16]
  Plant response rating (scale of 0 to 100), Ryegrass, Italian: 0
[15]; 62 g ai/ha
  Plant response rating, Ryegrass, Italian: 5
[15]; 125 g ai/ha
  Plant response rating, Ryegrass, Italian: 25
[15]; 250 g ai/ha
  Plant response rating, Ryegrass, Italian: 20
